How the values were obtained:
Assay in all cases: Bliss excess, mean over the matrix (fraction); higher = more synergy
[1] = system: CAL-33 (Oral Cavity Carcinoma)
How it was run: (§1)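 Cell lines grown in DMEM/F12 or RPMI with 10% FBS were plated in 1536-well plates and held 24 hours at 37°C, 5% CO2 before 72 hours of exposure to two-drug dose matrices, with DMSO typically at 0.2%. CellTiter-Glo 2.0 luminescence gave viability, which was converted to inhibition. Vehicle wells were set to 0 and blank wells to 1. Combination Emax is the second-highest inhibition in the matrix, and Bliss excess is the observed combination effect minus the expected EA + EB − EA·EB, where EA and EB are the single-agent effects.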

[2] = system: FTC-133 (Thyroid Gland Carcinoma)
How it was run: as §1

[3] = system: NCI-H524 (Small Cell Lung Carcinoma)
How it was run: as §1

[4] = system: YAPC (Pancreatic Carcinoma)
How it was run: as §1

[5] = system: HH (T-Cell Non-Hodgkin's Lymphoma)
How it was run: as §1

[6] = system: Hs-746T (Gastric Carcinoma)
How it was run: as §1

[7] = system: HuH-7 (Hepatocellular Carcinoma)
How it was run: as §1

[8] = system: BPH-1 (Non-Cancerous)
How it was run: as §1

[9] = system: BFTC-909 (Kidney Carcinoma)
How it was run: as §1

[10] = system: HuCCT1 (Biliary Tract Carcinoma)
How it was run: as §1

[11] = system: L-428 (Hodgkin's Lymphoma)
How it was run: as §1

[12] = system: SNU-16 (Gastric Carcinoma)
How it was run: as §1

[13] = system: LS-123 (Colorectal Carcinoma)
How it was run: as §1

[14] = system: LNZTA3WT4 (Low Grade Glioma)
How it was run: as §1

[15] = system: ALL-PO (B-Lymphoblastic Leukemia)
How it was run: as §1

[16] = system: SW1573 (Lung Adenocarcinoma)
How it was run: as §1

[17] = system: TGBC1TKB (Biliary Tract Carcinoma)
How it was run: as §1

[18] = system: ESS-1 (Other Solid Carcinomas)
How it was run: as §1

[19] = system: BE-13 (T-Lymphoblastic Leukemia)
How it was run: as §1

[20] = system: NCI-H209 (Small Cell Lung Carcinoma)
How it was run: as §1

Compound	Bliss excess [1]	Bliss excess [2]	Bliss excess [3]	Bliss excess [4]	Bliss excess [5]	Bliss excess [6]	Bliss excess [7]	Bliss excess [8]	Bliss excess [9]	Bliss excess [10]	Bliss excess [11]	Bliss excess [12]	Bliss excess [13]	Bliss excess [14]	Bliss excess [15]	Bliss excess [16]	Bliss excess [17]	Bliss excess [18]	Bliss excess [19]	Bliss excess [20]
Cc1c2c(nn1C)CSCc1cc(n(C)n1)CSc1cc(c3ccccc3c1)OCCCc1c(C(=O)O)n(C)c3c-2c(Cl)ccc13 [AZD5991] + C[C@@H](Nc1cc(F)cc(F)c1)c1cc(C(=O)N(C)C)cc2c(=O)cc(N3CCOCC3)oc12 [AZD8186] (first compound max 1 µM, 7x7, partner max 3 µM)	-0.0099	-0.0065	-0.0289	-0.0159	0.105	0.0106	-0.007	0.0078	0.0188	0.021	-0.0085	0.0087	-0.0006	0.0055	-0.0248	-0.0565	-0.0236	-0.045	-0.109	-0.0154
Cc1c2c(nn1C)CSCc1cc(n(C)n1)CSc1cc(c3ccccc3c1)OCCCc1c(C(=O)O)n(C)c3c-2c(Cl)ccc13 [AZD5991] + Cn1cnc2c(F)c(Nc3ccc(Br)cc3Cl)c(C(=O)NOCCO)cc21 [Selumetinib] (first compound max 1 µM, 7x7, partner max 3 µM)	0.0814	0.0108	-0.0129	-0.003	-0.0664	-0.018	-0.0361	0.0216	0.0607	0.0339	0.0018	0.0143	0.0196	0.0046	0.0056	-0.0427	-0.0181	0.0083	0.0415	-0.0778
C[C@@H]1COCCN1c1cc(C2([S@](C)(=N)=O)CC2)nc(-c2ccnc3[nH]ccc23)n1 [AZD6738] + O=C(c1cc(Cc2n[nH]c(=O)c3ccccc23)ccc1F)N1CCN(C(=O)C2CC2)CC1 [Olaparib] (first compound max 10 µM, 7x7, partner max 10 µM)	0.0047	-0.0401	0.0196	-0.0007	-0.0082	0.0101	0.0569	0.0283	0.0337	-0.0264	0.0227	-0.0054	0.0192	-0.0197	0.018	-0.0044	-0.0578	0.0107	0.0278	-0.0599
NC1(C(=O)N[C@@H](CCO)c2ccc(Cl)cc2)CCN(c2ncnc3[nH]ccc23)CC1 [Capivasertib] + CC(=O)c1c(C)c2cnc(Nc3ccc(N4CCNCC4)cn3)nc2n(C2CCCC2)c1=O [Palbociclib] (first compound max 10 µM, 7x7, partner max 10 µM)	0.0918	-0.011	0.0047	0.0043	-0.0305	-0.0322	0.0124	-0.0574	0.006	-0.0067	-0.0092	0.0129	-0.0026	0.0103	-0.0252	-0.0253	0.0157	-0.0479	-0.0485	-0.0433
NC1(C(=O)N[C@@H](CCO)c2ccc(Cl)cc2)CCN(c2ncnc3[nH]ccc23)CC1 [Capivasertib] + CC(C)n1c(=O)n(C)c2cnc3cc(F)c(-c4ccc(OCCCN5CCCCC5)nc4)cc3c21 [AZD1390] (first compound max 10 µM, 7x7, partner max 0.3 µM)	-0.0018	-0.0486	-0.0033	-0.0105	-0.0327	-0.0445	-0.045	-0.0842	-0.013	-0.0447	-0.0352	-0.0034	-0.0493	-0.0189	-0.0382	-0.0724	0.004	-0.0078	-0.0455	-0.037
NC1(C(=O)N[C@@H](CCO)c2ccc(Cl)cc2)CCN(c2ncnc3[nH]ccc23)CC1 [Capivasertib] + CCN(CCO)CCCOc1ccc2c(Nc3cc(CC(=O)Nc4cccc(F)c4)[nH]n3)ncnc2c1 [AZD2811] (first compound max 10 µM, 7x7, partner max 1 µM)	-0.0564	0.0005	0.0113	0.0161	-0.0221	-0.0265	-0.0168	0.0118	0.0366	0.0051	0.0098	0.0416	-0.0179	-0.0551	-0.0254	-0.0197	-0.0275	0.0203	-0.0125	-0.0383
NC1(C(=O)N[C@@H](CCO)c2ccc(Cl)cc2)CCN(c2ncnc3[nH]ccc23)CC1 [Capivasertib] + COc1nnc2ccc(N3CCC(c4ccc(OCCN5CCN(C)C(=O)[C@H]5C)cc4)CC3)nn12 [AZD5153] (first compound max 10 µM, 7x7, partner max 1 µM)	0.051	0.0923	-0.0155	0.007	0.0022	0.0169	-0.0061	-0.0542	0.0433	0.0113	-0.0239	0.0344	0.0517	0.0305	-0.0116	-0.0278	0.02	0.0342	-0.0281	-0.0007
NC1(C(=O)N[C@@H](CCO)c2ccc(Cl)cc2)CCN(c2ncnc3[nH]ccc23)CC1 [Capivasertib] + C[C@@H]1COCCN1C2=NC(=NC(=C2)C3(CC3)[S@](=N)(=O)C)C4=C5C=CNC5=NC=C4 [AZD6738] (first compound max 10 µM, 7x7, partner max 10 µM)	-0.0246	-0.042	-0.0086	0.0093	-0.0396	-0.0747	-0.0228	-0.0497	-0.0878	-0.0335	-0.0004	-0.0208	0.0058	-0.027	0.0103	-0.0915	-0.005	-0.0884	-0.0877	-0.0054
NC1(C(=O)N[C@@H](CCO)c2ccc(Cl)cc2)CCN(c2ncnc3[nH]ccc23)CC1 [Capivasertib] + Cn1cnc2c(F)c(Nc3ccc(Br)cc3Cl)c(C(=O)NOCCO)cc21 [Selumetinib] (first compound max 10 µM, 7x7, partner max 10 µM)	0.0926	0.0156	0.0158	0.03	-0.0626	0.0736	-0.0428	-0.0162	0.0531	0.01	-0.0127	0.0151	0.0583	-0.0292	0.117	-0.0111	0.0729	-0.0183	0.0265	-0.0108
COc1cccc2c1C(=O)c1c(O)c3c(c(O)c1C2=O)C[C@@](O)(C(=O)CO)C[C@@H]3O[C@H]1C[C@H](N)[C@H](O)[C@H](C)O1 [Doxorubicin] + Cc1cc2ncnn2cc1Nc1ncc2c(n1)n(C1CCOCC1)c(=O)n2C [AZD7648] (first compound max 1 µM, 7x7, partner max 10 µM)	0.0998	0.0917	0.145	-0.0304	-0.0305	0.0464	-0.0513	0.0736	0.0402	-0.0073	0.0276	0.0506	0.035	0.016	0.143	-0.0042	-0.0247	0.0112	0.0553	0.129
CS(=O)(=O)CCNCc1ccc(-c2ccc3ncnc(Nc4ccc(OCc5cccc(F)c5)c(Cl)c4)c3c2)o1 [Lapatinib] + C[C@@H](Oc1cc(-c2cnn(C3CCNCC3)c2)cnc1N)c1c(Cl)ccc(F)c1Cl [Crizotinib] (first compound max 10 µM, 7x7, partner max 10 µM)	-0.0247	-0.0012	-0.037	-0.0168	-0.0405	0.0079	0.0309	-0.0078	-0.0651	-0.068	-0.0032	-0.0151	-0.0052	-0.0665	0.035	-0.0788	-0.0061	-0.0637	-0.0235	-0.003
CC(=O)c1c(C)c2cnc(Nc3ccc(N4CCNCC4)cn3)nc2n(C2CCCC2)c1=O [Palbociclib] + CC1(C)CCC(CN2CCN(c3ccc(C(=O)NS(=O)(=O)c4ccc(NCC5CCOCC5)c([N+](=O)[O-])c4)c(Oc4cnc5[nH]ccc5c4)c3)CC2)=C(c2ccc(Cl)cc2)C1 [Venetoclax] (first compound max 10 µM, 7x7, partner max 1 µM)	-0.022	-0.0481	-0.0732	-0.0109	-0.0384	-0.0117	-0.0402	-0.0556	0.0244	-0.0611	0.0037	-0.0161	-0.0324	-0.0032	0.169	-0.0108	-0.0385	-0.0303	-0.0182	0.0824
CC(=O)c1c(C)c2cnc(Nc3ccc(N4CCNCC4)cn3)nc2n(C2CCCC2)c1=O [Palbociclib] + Cc1c2c(nn1C)CSCc1cc(n(C)n1)CSc1cc(c3ccccc3c1)OCCCc1c(C(=O)O)n(C)c3c-2c(Cl)ccc13 [AZD5991] (first compound max 10 µM, 7x7, partner max 1 µM)	0.016	-0.0515	0.0019	-0.0037	-0.131	-0.0293	-0.011	-0.0476	0.0029	-0.0461	-0.0554	-0.0089	-0.0376	0.0064	-0.0065	-0.0431	-0.0082	-0.0067	-0.0277	-0.0107
CC(=O)c1c(C)c2cnc(Nc3ccc(N4CCNCC4)cn3)nc2n(C2CCCC2)c1=O [Palbociclib] + Cn1cnc2c(F)c(Nc3ccc(Br)cc3Cl)c(C(=O)NOCCO)cc21 [Selumetinib] (first compound max 10 µM, 7x7, partner max 10 µM)	0.0345	-0.0403	-0.0403	0.0156	-0.0471	-0.0475	-0.0584	-0.0755	0.0424	0.0282	-0.0083	0.0339	0.002	-0.0459	0.0243	-0.0288	-0.0251	-0.0097	-0.0003	-0.0528
